Assay results taken from patent US7582660B2, “2-thio-substituted imidazole derivatives and their use in pharmaceutics” (c-a-i-r biosciences GmbH, priority 2002, dated 2009).

Key:
[1] = system: TNF-α; experiment: In vitro test with PBMCs, LPS-stimulated TNFα release (ELISA); format: cell-based; details: human PBMCs, LPS 4 hours, read-out: IC50 (μM) PBMCA TNF-α
[2] = system: IL-1β; experiment: In vitro test with PBMCs, LPS-stimulated IL-1β release (ELISA); format: cell-based; details: human PBMCs, LPS 4 hours, read-out: IC50 (μM) PBMCA IL-1β
[3] = biological target: p 38 (Homo sapiens, UniProt Q16539); experiment: Kinase assay (activated p38a, ATF2 substrate, ELISA readout); format: biochemical; details: ATF2, 100 μM ATP
Chain of p 38 (Q16539 whole entry): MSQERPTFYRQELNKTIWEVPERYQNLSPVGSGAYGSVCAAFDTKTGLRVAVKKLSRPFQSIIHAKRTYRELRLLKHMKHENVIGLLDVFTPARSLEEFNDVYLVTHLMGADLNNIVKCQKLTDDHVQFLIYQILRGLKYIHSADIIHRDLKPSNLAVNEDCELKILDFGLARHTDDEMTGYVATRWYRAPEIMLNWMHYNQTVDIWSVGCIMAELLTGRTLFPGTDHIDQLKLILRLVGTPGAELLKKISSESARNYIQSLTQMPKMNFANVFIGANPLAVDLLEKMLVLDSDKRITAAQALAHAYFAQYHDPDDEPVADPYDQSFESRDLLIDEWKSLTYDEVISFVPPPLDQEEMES
Description: The reaction is stopped by placing the samples on ice, adding DPBS buffer and then centrifuging at 15 880 g for 12 min. The amount of IL-1β and TNFα in the plasma supernatant is then determined by ELISA. 2) Kinase Assay • At 37° C., microtiter plates were coated for one hour with 50 μl of ATF2 solution (20 μg/ml). The plates were washed three times with water, and 50 μl of kinase mixture (50 mM tris-HCl, 10 mM MgCl2, 10 mM β-glycerol phosphate, 10 μg/ml of BSA, 1 mM DTT, 100 μM ATP, 100 μM Na3VO4, 10 ng of activated p38a) with or without inhibitor were added into the wells, and the plates were incubated at 37° C. for 1 hour. The plates were washed three times and then incubated with phosphorus-ATF-2 antibody for one hour. The plates were once more washed three times, and goat-antirabbit IgG labeled with alkaline phosphatase was added at 37° C. for one hour (to fix antibody-phosphorylated protein/substrate complex). The plates were washed three times, and the alkaline phosphatase/substrate solution (3 mM 4-NPP, 50 mM NaHCO3, 50 mM MgCl2, 100 μl/well) was added at 37° C. for 1.5 hours. […] The IC50 values were calculated.

[4] = system: IL-1β; experiment: In vitro test with human whole blood, LPS-stimulated IL-1β release (ELISA); format: cell-based; details: read-out: K50 (μM) Whole blood IL-1β
Description: (§1) They may be administered in one individual dose or in a plurality of doses. The activity spectrum of the compounds as inhibitors of cytokine release was examined using the test systems below, as described by C. Donat and S. Laufer in Arch. Pharm. Pharm. […] 1, 1-40. 2000.
(§2) In Vitro Test with Human Whole Blood
(§3) The reaction is stopped by placing the samples on ice, adding DPBS buffer and then centrifuging at 1000 g for 15 min. The amount of IL-1β and TNFα in the plasma supernatant is then determined by ELISA.

[5] = system: TNF-α; experiment: In vitro test with human whole blood, LPS-stimulated TNFα release (ELISA); format: cell-based; details: 1 μg/ml LPS 4 hours, read-out: K50 (μM) Whole blood TNF-α
Description: as §1, §2, §3

[6] = human whole blood, 1 μg/ml LPS 4 hours

| Compound | IC50 ([1]; PBMC) [µM] | IC50 ([2]; PBMC) [µM] | IC50 [3] [µM] | IC50 ([4]; Homo sapiens, 4 h) [µM] | IC50 [5] [µM] | IC50 [4, 6] [µM] | IC50 [1] [µM] | IC50 [2] [µM] |
| --- | --- | --- | --- | --- | --- | --- | --- | --- |
| Fc1ccc(-c2nc(SCc3ccccc3)[nH]c2-c2ccnc(NCc3ccccc3)c2)cc1 [Compound 26c, Benzyl-{4-[2-benzylsulfanyl-5-(4-fluorophenyl)-3H-imidazol-4-yl]pyridin-2-yl}-amine] | 3.2 | 0.2 | 1.42 | – | – | – | – | – |
| Fc1ccc(-c2nc(SCc3ccccc3)[nH]c2-c2ccnc(Cl)c2)cc1 [Compound 26a, 4-[2-Benzylsulfanyl-5-(4-fluorophenyl)-3H-imidazol-4-yl]-2-chloropyridine] | 60 | 1.8 | – | – | – | – | – | – |
| CSc1nc(-c2ccc(F)cc2)c(-c2ccnc(NC(C)c3ccccc3)c2)[nH]1 (racemic) [Compound 25m, (RS)-{4-[5-(4-Fluorophenyl)-2-methylsulfanyl-3H-imidazol-4-yl]pyridin-2-yl}-(1-phenylethyl)amine] | – | – | – | 0.99 | – | – | – | – |
| CSc1nc(-c2ccc(F)cc2)c(-c2ccnc(NCc3ccc(Cl)cc3)c2)[nH]1 [Compound 25i, (4-Chlorobenzyl)-{4-[5-(4-fluorophenyl)-2-methylsulfanyl-3H-imidazol-4-yl]-pyridin-2-yl}amine] | 0.5 | 0.15 | 0.95 | – | 14.8 | 13.3 | – | – |
| CSc1nc(-c2ccc(F)cc2)c(-c2ccnc(F)c2)[nH]1 [Compound 25b, 2-Fluoro-4-[5-(4-fluorophenyl)-2-methylsulfanyl-3H-imidazol-4-yl]pyridine] | 2.8 | 0.3 | 3.8 | – | – | – | – | – |
| CC(Nc1cc(-c2[nH]c(SCc3ccccc3)nc2-c2ccc(F)cc2)ccn1)c1ccccc1 (racemic) [Compound 26d, (RS)-{4-[2-Benzylsulfanyl-S-(4-fluorophenyl)-3H-imidazol-4-yl]pyridin-2-yl}-(1-phenylethyl)amine] | 2.7 | 0.045 | 0.38 | – | – | – | – | – |
| C[S+]([O-])c1ccc(CSc2nc(-c3ccc(F)cc3)c(-c3ccnc(NCc4ccccc4)c3)[nH]2)cc1 (centres unmarked) [Compound 27c, Benzyl-{4-[5-(4-fluorophenyl)-2-(4-methanesulfinylbenzylsulfanyl)-3H-imidazol-4-yl]pyridin-2-yl}amine] | 2 | 0.47 | 1.45 | – | – | – | – | – |
| Fc1ccc(-c2nc(SCc3ccccc3)[nH]c2-c2ccnc(F)c2)cc1 [Compound 26b, 4-[2-Benzylsulfanyl-5-(4-fluorophenyl)-3H-imidazol-4-yl]-2-fluoropyridine] | 40.5 | 2.9 | 4.2 | – | – | – | – | – |
| CSc1nc(-c2ccc(F)cc2)c(-c2ccnc(Cl)c2)[nH]1 [Compound 25a, 2-Chloro-4-[5-(4-fluorophenyl)-2-methylsulfanyl-3H-imidazol-4-yl]pyridine] | 2.2 | 0.35 | – | – | – | – | – | – |
| C[S+]([O-])c1ccc(CSc2nc(-c3ccc(F)cc3)c(-c3ccnc(F)c3)[nH]2)cc1 (centres unmarked) [Compound 27b, 2-Fluoro-4-[5-(4-fluorophenyl)-2-(4-methanesulfinylbenzylsulfanyl)-3H-imidazol-4-yl]pyridine] | 6.9 | 2.45 | 9.3 | – | – | – | – | – |
| COc1ccc(CNc2cc(-c3[nH]c(SC)nc3-c3ccc(F)cc3)ccn2)cc1 [Compound 25g, {4-[5-(4-Fluorophenyl)-2-methylsulfanyl-3H-imidazol-4-yl]pyridin-2-yl}-(4-methoxybenzyl)amine] | 0.64 | 0.056 | 0.79 | – | – | – | – | – |
| CSc1nc(-c2ccc(F)cc2)c(-c2ccnc(NCCc3ccccc3)c2)[nH]1 [Compound 25l, {4-[5-(4-Fluorophenyl)-2-methylsulfanyl-3H-imidazol4-yl]pyridin-2-yl}-phenethylamine] | 0.35 | 0.031 | 0.24 | – | 14.9 | 17.1 | – | – |
| CSc1nc(-c2ccc(F)cc2)c(-c2ccnc(NCc3ccc(Cl)c(Cl)c3)c2)[nH]1 [Compound 25j, (3,4-Dichlorobenzyl)-{4-[5-(4-fluorophenyl)-2-methylsulfanyl-3H-imidazol4-yl]-pyridin-2-yl}amine] | 0.72 | 0.23 | 0.7 | – | – | – | – | – |
| CSc1nc(-c2ccc(F)cc2)c(-c2cc[nH]c(=O)c2)[nH]1 [Compound 25e, 4-[5-(4-Fluorophenyl)-2-methylsulfanyl-3H-imidazol-4-yl]-1H-pyridin-2-one] | 3.1 | 0.5 | – | – | – | – | – | – |
| CSc1nc(-c2ccc(F)cc2)c(-c2ccnc(NCc3ccccc3)c2)[nH]1 [Compound 25f, Benzyl{4-[S-(4-fluorophenyl)-2-methylsulfanyl-3H-imidazol-4-yl]pyridin-2-yl}-amine] | – | – | 0.65 | – | – | – | 0.63 | 0.108 |
| COc1cc(-c2[nH]c(SC)nc2-c2ccc(F)cc2)ccn1 [Compound 25d, 4-[5-(4-Fluorophenyl)-2-methylsulfanyl-3H-imidazol-4-yl]-2-methoxypyridine] | 1.9 | 0.15 | – | – | – | – | – | – |
| CSc1nc(-c2ccc(F)cc2)c(-c2ccnc(Nc3ccccc3)c2)[nH]1 [Compound 25k, {4-[5-(4-Fluorophenyl)-2-methylsulfanyl-3H-imidazol-4-yl]pyridin-2-yl}-phenylamine] | 0.34 | 0.03 | 0.13 | – | – | – | – | – |
| CSc1nc(-c2ccc(F)cc2)c(-c2ccnc(OC(C)C)c2)[nH]1 [Compound 25c, 4-[5-(4-Fluorophenyl)-2-methylsulfanyl-3H-imidazol-4-yl]-2-isopropoxypyridin] | 4.6 | 2.7 | 8.7 | – | 7.2 | 2.2 | – | – |
| CSc1nc(-c2ccc(F)cc2)c(-c2ccnc(NCc3ccc(C)cc3)c2)[nH]1 [Compound 25h, {4-[5-(4-Fluorophenyl)-2-methylsulfanyl-3H-imidazol-4-yl]pyridin-2-yl}-(4-methylbenzyl)amine] | 0.67 | 0.085 | 0.83 | – | 17.3 | 22.3 | – | – |
| C[S+]([O-])c1ccc(CSc2nc(-c3ccc(F)cc3)c(-c3ccnc(Cl)c3)[nH]2)cc1 (centres unmarked) [Compound 27a, 2-Chloro-4-[5-(4-fluorophenyl)-2-(4-methanesulfinylbenzylsulfanyl)-3H-imidazol-4-yl]pyridine] | 12 | 2.1 | – | – | – | – | – | – |
| CC(Nc1cc(-c2[nH]c(SCc3ccc([S+](C)[O-])cc3)nc2-c2ccc(F)cc2)ccn1)c1ccccc1 (racemic) [Compound 27d, (RS)-{4-[5-(4-Fluorophenyl)-2-(4-methanesulfinylbenzylsulfanyl)-3H-imidazol-4-yl]pyridin-2-yl}-(1-phenylethyl)amine] | 0.91 | 0.04 | 0.27 | – | 10 | 15.7 | – | – |
| COc1ccc(CNc2cc(-c3[nH]c(SCc4ccccc4)nc3-c3ccc(F)cc3)ccn2)cc1 [Compound 26e, {4-[2-Benzylsulfanyl-5-(4-fluorophenyl)-3H-imidazol-4-yl]pyridin-2-yl}-(4-methoxybenzyl)amine] | 21 | 0.18 | – | – | – | – | – | – |
